Experimental data from PubChem BioAssay (NCI).
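Values below derive from 48-hour exposures of cells grown in 96-well plates, with endpoints linearly interpolated between the two concentrations bracketing the appropriate inhibition level. Abbreviation: GI50, concentration required for 50% inhibition of growth. TGI marks complete inhibition of growth.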

Columns and labels:
Test in all cases: growth of human tumour cells (NCI), 48 h
A498 renal = test system: A498 renal
SN12C renal = test system: SN12C renal
IGROV1 ovarian = test system: IGROV1 ovarian
MCF7 breast = test system: MCF7 breast
COLO 205 colon = test system: COLO 205 colon
NCI-H226 lung = test system: NCI-H226 lung
EKVX NSCLC = test system: EKVX NSCLC
NCI-H23 lung = test system: NCI-H23 lung
HS 578T breast = test system: HS 578T breast
MDA-MB-435 = test system: MDA-MB-435
MDA-MB-231 breast = test system: MDA-MB-231 breast
UACC-62 melanoma = test system: UACC-62 melanoma
SK-OV-3 ovarian = test system: SK-OV-3 ovarian
OVCAR-3 ovarian = test system: OVCAR-3 ovarian
DU-145 prostate = test system: DU-145 prostate
CAKI-1 renal = test system: CAKI-1 renal
786-0 renal = test system: 786-0 renal
PC-3 prostate = test system: PC-3 prostate
MOLT-4 leukemia = test system: MOLT-4 leukemia
NCI-H522 lung = test system: NCI-H522 lung
SK-MEL-28 melanoma = test system: SK-MEL-28 melanoma
SW-620 colon = test system: SW-620 colon
SF-295 CNS = test system: SF-295 CNS
SF-539 CNS = test system: SF-539 CNS
OVCAR-5 ovarian = test system: OVCAR-5 ovarian
HCC-2998 colon = test system: HCC-2998 colon
K-562 leukemia = test system: K-562 leukemia
OVCAR-8 ovarian = test system: OVCAR-8 ovarian
TK-10 renal = test system: TK-10 renal
SF-268 CNS = test system: SF-268 CNS
UACC-257 melanoma = test system: UACC-257 melanoma
BT-549 breast = test system: BT-549 breast
LOX IMVI melanoma = test system: LOX IMVI melanoma
HOP-92 NSCLC = test system: HOP-92 NSCLC
SNB-19 CNS = test system: SNB-19 CNS
SK-MEL-5 melanoma = test system: SK-MEL-5 melanoma
UO-31 renal = test system: UO-31 renal
NCI/ADR-RES ovarian = test system: NCI/ADR-RES ovarian
NCI-H460 lung = test system: NCI-H460 lung
HT29 colon = test system: HT29 colon
ACHN renal = test system: ACHN renal
RXF 393 renal = test system: RXF 393 renal
HL-60(TB) leukemia = test system: HL-60(TB) leukemia
M14 melanoma = test system: M14 melanoma
HCT-15 colon = test system: HCT-15 colon
KM12 colon = test system: KM12 colon
HCT-116 colon = test system: HCT-116 colon
T-47D breast = test system: T-47D breast
U251 CNS = test system: U251 CNS
OVCAR-4 ovarian = test system: OVCAR-4 ovarian
CCRF-CEM leukemia = test system: CCRF-CEM leukemia
A549 NSCLC = test system: A549 NSCLC
MALME-3M melanoma = test system: MALME-3M melanoma
SK-MEL-2 melanoma = test system: SK-MEL-2 melanoma
RPMI-8226 leukemia = test system: RPMI-8226 leukemia
HOP-62 NSCLC = test system: HOP-62 NSCLC
SNB-75 CNS = test system: SNB-75 CNS

N#CC(NCCc1ccccc1)c1ccc(C(C#N)NCCc2ccccc2)cc1 (stereo unspecified)
TGI (A498 renal): > 100 µM
TGI (SN12C renal): > 100 µM
TGI (IGROV1 ovarian): > 100 µM
TGI (MCF7 breast): > 100 µM
TGI (COLO 205 colon): > 100 µM
TGI (NCI-H226 lung): > 100 µM
TGI (EKVX NSCLC): > 100 µM
TGI (NCI-H23 lung): > 100 µM
TGI (HS 578T breast): > 100 µM
TGI (MDA-MB-435): > 100 µM
TGI (MDA-MB-231 breast): > 100 µM
TGI (UACC-62 melanoma): > 100 µM
TGI (SK-OV-3 ovarian): > 100 µM
TGI (OVCAR-3 ovarian): > 100 µM
TGI (DU-145 prostate): > 100 µM
TGI (CAKI-1 renal): > 100 µM
TGI (786-0 renal): > 100 µM
TGI (PC-3 prostate): > 100 µM
TGI (MOLT-4 leukemia): > 100 µM
TGI (NCI-H522 lung): > 100 µM
TGI (SK-MEL-28 melanoma): > 100 µM
TGI (SW-620 colon): > 100 µM
TGI (SF-295 CNS): > 100 µM
TGI (SF-539 CNS): > 100 µM
TGI (OVCAR-5 ovarian): > 100 µM
TGI (HCC-2998 colon): > 100 µM
TGI (K-562 leukemia): 70.6 µM
TGI (OVCAR-8 ovarian): > 100 µM
TGI (TK-10 renal): > 100 µM
TGI (SF-268 CNS): > 100 µM
TGI (UACC-257 melanoma): > 100 µM
TGI (BT-549 breast): 56.1 µM
TGI (LOX IMVI melanoma): > 100 µM
TGI (HOP-92 NSCLC): > 100 µM
TGI (SNB-19 CNS): > 100 µM
TGI (SK-MEL-5 melanoma): > 100 µM
TGI (UO-31 renal): > 100 µM
TGI (NCI/ADR-RES ovarian): 57.5 µM
TGI (NCI-H460 lung): > 100 µM
TGI (HT29 colon): > 100 µM
TGI (ACHN renal): > 100 µM
TGI (RXF 393 renal): > 100 µM
TGI (HL-60(TB) leukemia): 40.8 µM
TGI (M14 melanoma): > 100 µM
TGI (HCT-15 colon): > 100 µM
TGI (KM12 colon): > 100 µM
TGI (HCT-116 colon): > 100 µM
TGI (T-47D breast): > 100 µM
TGI (U251 CNS): > 100 µM
TGI (OVCAR-4 ovarian): > 100 µM
TGI (CCRF-CEM leukemia): 65.7 µM
TGI (A549 NSCLC): > 100 µM
TGI (MALME-3M melanoma): > 100 µM
TGI (SK-MEL-2 melanoma): > 100 µM

O=C1NC(=NCc2c(Cl)cccc2Cl)S/C1=C\c1ccc2ncccc2c1
GI50 (A498 renal): 4.47 µM
TGI (A498 renal): > 25 µM
GI50 (SN12C renal): 14.1 µM
TGI (SN12C renal): > 25 µM
GI50 (IGROV1 ovarian): 13.1 µM
TGI (IGROV1 ovarian): > 25 µM
GI50 (MCF7 breast): 16.1 µM
TGI (MCF7 breast): > 25 µM
GI50 (RPMI-8226 leukemia): 9.29 µM
TGI (RPMI-8226 leukemia): > 25 µM
GI50 (COLO 205 colon): 14.7 µM
TGI (COLO 205 colon): > 25 µM
GI50 (NCI-H226 lung): 6.61 µM
TGI (NCI-H226 lung): > 25 µM
GI50 (NCI-H23 lung): 11.6 µM
TGI (NCI-H23 lung): > 25 µM
GI50 (HS 578T breast): 8.78 µM
TGI (HS 578T breast): > 21.1 µM
GI50 (MDA-MB-435): 9.24 µM
TGI (MDA-MB-435): > 25 µM
GI50 (MDA-MB-231 breast): 16.3 µM
TGI (MDA-MB-231 breast): > 25 µM
GI50 (UACC-62 melanoma): 15.9 µM
TGI (UACC-62 melanoma): > 25 µM
GI50 (SK-OV-3 ovarian): 7.53 µM
TGI (SK-OV-3 ovarian): > 25 µM
GI50 (OVCAR-3 ovarian): 8.22 µM
TGI (OVCAR-3 ovarian): > 25 µM
GI50 (DU-145 prostate): 6.3 µM
TGI (DU-145 prostate): > 25 µM
GI50 (CAKI-1 renal): 11 µM
TGI (CAKI-1 renal): > 25 µM
GI50 (786-0 renal): 9.79 µM
TGI (786-0 renal): > 25 µM
GI50 (PC-3 prostate): 13.4 µM
TGI (PC-3 prostate): > 25 µM
GI50 (MOLT-4 leukemia): 12.9 µM
TGI (MOLT-4 leukemia): > 25 µM
GI50 (NCI-H522 lung): 3.99 µM
TGI (NCI-H522 lung): 8.77 µM
GI50 (SK-MEL-28 melanoma): > 22.9 µM
TGI (SK-MEL-28 melanoma): > 25 µM
GI50 (SW-620 colon): 10.6 µM
TGI (SW-620 colon): > 25 µM
GI50 (SF-295 CNS): > 12.1 µM
TGI (SF-295 CNS): > 25 µM
GI50 (SF-539 CNS): 3.59 µM
TGI (SF-539 CNS): 10.7 µM
GI50 (OVCAR-5 ovarian): > 19.5 µM
TGI (OVCAR-5 ovarian): > 25 µM
GI50 (HCC-2998 colon): > 25 µM
TGI (HCC-2998 colon): > 25 µM
GI50 (K-562 leukemia): 8.91 µM
TGI (K-562 leukemia): > 25 µM
GI50 (OVCAR-8 ovarian): 10.6 µM
TGI (OVCAR-8 ovarian): > 25 µM
GI50 (TK-10 renal): 3.14 µM
TGI (TK-10 renal): > 22.9 µM
GI50 (SF-268 CNS): 6.71 µM
TGI (SF-268 CNS): > 25 µM
GI50 (HOP-62 NSCLC): 7.03 µM
TGI (HOP-62 NSCLC): > 19.9 µM
GI50 (UACC-257 melanoma): > 13.7 µM
TGI (UACC-257 melanoma): > 25 µM
GI50 (BT-549 breast): 6.24 µM
TGI (BT-549 breast): > 25 µM
GI50 (LOX IMVI melanoma): 13.7 µM
TGI (LOX IMVI melanoma): > 25 µM
GI50 (HOP-92 NSCLC): 4.25 µM
TGI (HOP-92 NSCLC): 20.2 µM
GI50 (SNB-19 CNS): 11.3 µM
TGI (SNB-19 CNS): > 25 µM
GI50 (SK-MEL-5 melanoma): 13.9 µM
TGI (SK-MEL-5 melanoma): > 25 µM
GI50 (UO-31 renal): 4.72 µM
TGI (UO-31 renal): 21.1 µM
GI50 (NCI/ADR-RES ovarian): 12 µM
TGI (NCI/ADR-RES ovarian): > 25 µM
GI50 (SNB-75 CNS): 1.14 µM
TGI (SNB-75 CNS): > 25 µM
GI50 (NCI-H460 lung): 8.31 µM
TGI (NCI-H460 lung): > 25 µM
GI50 (HT29 colon): 24.9 µM
TGI (HT29 colon): > 25 µM
GI50 (ACHN renal): 8.11 µM
TGI (ACHN renal): > 25 µM
GI50 (RXF 393 renal): 6.05 µM
TGI (RXF 393 renal): > 24.2 µM
GI50 (HL-60(TB) leukemia): 5.35 µM
TGI (HL-60(TB) leukemia): > 25 µM
GI50 (M14 melanoma): > 23.3 µM
TGI (M14 melanoma): > 25 µM
GI50 (HCT-15 colon): 4.85 µM
TGI (HCT-15 colon): > 25 µM
GI50 (KM12 colon): 16 µM
TGI (KM12 colon): > 25 µM
GI50 (HCT-116 colon): 6.15 µM
TGI (HCT-116 colon): > 25 µM
GI50 (T-47D breast): 9.64 µM
TGI (T-47D breast): > 25 µM
GI50 (U251 CNS): 8.17 µM
TGI (U251 CNS): > 25 µM
GI50 (OVCAR-4 ovarian): 6.53 µM
TGI (OVCAR-4 ovarian): > 24 µM
GI50 (CCRF-CEM leukemia): 9.19 µM
TGI (CCRF-CEM leukemia): > 25 µM
GI50 (A549 NSCLC): 10.2 µM
TGI (A549 NSCLC): > 25 µM
GI50 (MALME-3M melanoma): 10.6 µM
TGI (MALME-3M melanoma): > 25 µM
GI50 (SK-MEL-2 melanoma): 9.12 µM
TGI (SK-MEL-2 melanoma): 24.5 µM
